Data: PubChem BioAssay AID1963869 (Molecular Pharmacology Branch, DTP, NCI, 2024)

Test system: KRAS patient-derived spheroids with HUVEC/MSC, viability
Test: Anticancer human tumor 323965-272-R-J2-PDC patient-derived pancreatic carcinoma cell line growth inhibition [KRAS2]
Details: for IC50: curve of first compound; for viability, T/C: stronger effect = lower value; active = viability on the fitted dose curve at most 10% of control; inactive = the rest
Method in brief: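 Combination screen of spheroid viability in tumor-cell co-cultures with endothelial (HUVEC) and mesenchymal stem cell stroma. Each agent was tested in half-log dilutions, topping at clinical Cmax or at 10 microM without a known Cmax.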
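Note: spheroids exposed to agents for 7 days.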
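Throughout, for viability, T/C: 100% = DMSO vehicle control viability.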

CC(=O)Nc1cccc(-n2c(=O)n(C3CC3)c(=O)c3c(Nc4ccc(I)cc4F)n(C)c(=O)c(C)c32)c1 + CNCc1ccccc1-c1csc(C(C)Nc2nc(C)nc3cc(OC)c(OC)cc23)c1
8.68 nM: IC50 (second compound 3.16 µM)
active: viability, T/C (second compound 10 µM, first compound 0.0001 µM) 7.63% | viability, T/C (second compound 10 µM, first compound 0.000316 µM) 0.79% | viability, T/C (second compound 10 µM, first compound 0.001 µM) 6.13% | viability, T/C (second compound 10 µM, first compound 0.00316 µM) 0.2% | viability, T/C (second compound 10 µM, first compound 0.01 µM) 0.19% | viability, T/C (second compound 10 µM, first compound 0.0316 µM) 1.14%
4.97 nM: IC50 (second compound 1 µM)
< 0.1 nM: IC50 (second compound 10 µM)
3.71 nM: IC50 (second compound 0.1 µM)
inactive: viability, T/C (second compound 0.1 µM, first compound 0.0001 µM) 88% | viability, T/C (second compound 0.1 µM, first compound 0.000316 µM) 83.9% | viability, T/C (second compound 0.1 µM, first compound 0.001 µM) 60.7% | viability, T/C (second compound 0.1 µM, first compound 0.00316 µM) 52.4% | viability, T/C (second compound 0.1 µM, first compound 0.01 µM) 41.2% | viability, T/C (second compound 0.1 µM, first compound 0.0316 µM) 27.7% | viability, T/C (second compound 0.316 µM, first compound 0.0001 µM) 85.3% | viability, T/C (second compound 0.316 µM, first compound 0.000316 µM) 68.7% | viability, T/C (second compound 0.316 µM, first compound 0.001 µM) 62.7% | viability, T/C (second compound 0.316 µM, first compound 0.00316 µM) 49% | viability, T/C (second compound 0.316 µM, first compound 0.01 µM) 38.7% | viability, T/C (second compound 0.316 µM, first compound 0.0316 µM) 24.8% | viability, T/C (second compound 1 µM, first compound 0.0001 µM) 89.8% | viability, T/C (second compound 1 µM, first compound 0.000316 µM) 81.6% | viability, T/C (second compound 1 µM, first compound 0.001 µM) 67.7% | viability, T/C (second compound 1 µM, first compound 0.00316 µM) 55.5% | viability, T/C (second compound 1 µM, first compound 0.01 µM) 44% | viability, T/C (second compound 1 µM, first compound 0.0316 µM) 21.3% | viability, T/C (second compound 3.16 µM, first compound 0.0001 µM) 95.6% | viability, T/C (second compound 3.16 µM, first compound 0.000316 µM) 88.4% | viability, T/C (second compound 3.16 µM, first compound 0.001 µM) 77.6% | viability, T/C (second compound 3.16 µM, first compound 0.00316 µM) 64.3% | viability, T/C (second compound 3.16 µM, first compound 0.01 µM) 48.4% | viability, T/C (second compound 3.16 µM, first compound 0.0316 µM) 28.8%
2.91 nM: IC50 (second compound 0.316 µM)
